Results as given in article PMC8068288, “Novel Thiol Containing Hybrid Antioxidant-Nitric Oxide Donor Small Molecules for Treatment of Glaucoma” (Antioxidants, 2021).
Where two headings read alike, the source gives them in different places.

Tests used:
NTM-5 cells [1] = assay: Total nitrite release by Griess assay in NTM-5 cell supernatant; type: cell-based, human
Method: The total nitrite released from the compounds in buffer and in cell supernatant were measured by Griess assay as reported by us previously. In brief, compounds (SA-2, SA-9, and SA-10) in buffer at different concentrations (1 mM, 500 µM, 250 µM 125 µM, 62.5 µM, 31.25 µM, and 15.625 µM) or supernatant collected from Human transformed trabecular meshwork (NTM-5) cells were added to a 96-well plate. 1% Sulphanilamide in 5% phosphoric acid and 0.1% N-1-napthylethylenediamine dihydrochloride (NED) were added to experimental samples sequentially at room temperature and away from light. SIN-1 was used as reference standard. UV Absorbances (Cytation 5) were measured at specific timepoints (0, 5 min, 10 min, 15 min, 30 min, 24 h, and 28 h) at 520 nm.
The experiments were repeated twice with four technical replicates.

NTM-5 cells [2] = assay: In vitro cell viability (MTT) assay; conditions: NTM-5 cells, 24 h, up to 1000 µM
Method: NTM-5 cells (6000 cells/well) were seeded in 96-well plates to confluency. […] The cell viability and proliferation were measured using MTT assays (CellTiter 96® AQueous One Solution Cell Proliferation Assay, Promega Madison, WI, USA) following manufacturer instruction. The experiments were repeated twice with four technical replicates.

[3] = Ocular biodistribution after SA-9 and SA-9 NPs eye drop; type: in vivo; conditions: topical, 30 µL of 2% SA-9 solution, mouse, 1 h after single eye drop of 2% SA-9 solution
[4] = Hypochlorous acid (HOCl) radical scavenging assay (TNB) in buffer; type: biochemical
Method: This assay used the redox reaction between 5-thio-2-nitrobenzoic acid (TNB) and HOCl to form dithio-TNB. Using the method described previously, we assessed the % TNB remaining with or without treatment with SA compounds. Compounds SA-2, SA-9, and SA-10 were used in concentrations ranging from 0.1 µM, 1 µM, 10 µM, 100 µM, and 1000 µM. Lipoic acid (1 mM) was used as positive control.

[5] = Superoxide anion radical scavenging assay (pyrogallol/WST-1) in buffer; type: biochemical
Method: The ROS scavenging ratio was determined using a chemical assay where WST-1 was used as superoxide scavenger produced by pyrogallol following a reported protocol. Briefly, the superoxide anion radical scavenging activity was determined spectrophotometrically by measuring the formation of WST-1 formazan at 450 nm. WST-1 (40 µL, 50 µM) was added to the compounds (or corresponding solution) in a final volume of 160 µL in 50 mM ammonium hydrogen carbonate buffer, 0.5 mM EDTA, pH 9.3. Reaction was launched by adding 40 µL 1 mM pyrogallol. The operation was based on the 96-well microplate, and measurement was performed at different time points under 37 °C by Cytation5 Microplate Reader. Baicalein (1 mM) was used as positive control. Compounds SA-2, SA-9, and SA-10 were used in concentrations ranging from 1 µM, 10 µM, 100 µM, and 1000 µM. The superoxide anion radical scavenging ratio % was calculated according to the following formula:Scavenging ratio (%) = A0 − (A1 − A2)/A0 × 100%

NTM-5 cells [6] = assay: In vitro cytoprotection assay against TBHP (MTT); type: cell-based; conditions: Homo sapiens, TBHP 350 µM, read-out: EC50 of increase in cell viability (cytoprotection)
Method: After 24 h of treatment, cell proliferation was measured using MTT assay. All the experiments are done in duplicate with four experimental replicates.

Cl.[NH-]c1c[n+](C2CCSCC2)no1 [SA-9, (3-(tetrahydro-2H-thiopyran-4-yl)-1,2,3-oxadiazol-3-ium-5-yl)amide hydrochloride]
NO released in NTM-5 cell supernatants (NTM-5 cells [1]; 28 h at 37 °C): dose dependently | start of NO release (NTM-5 cells [1]; buffer solution and TM cells): > 24 h | cytotoxicity (NTM-5 cells [2]): no cytotoxicity | concentration at 1 h ([3]; choroid + sclera, read-out: concentration of SA-9 in choroid + sclera): 28900 ± 2500 ng/g | concentration at 1 h ([3]; lens, read-out: concentration of SA-9 in lens): 20500 ± 8300 ng/g | concentration at 1 h ([3]; optic nerve, read-out: concentration of SA-9 in ON): 1300 ± 90 ng/g | concentration at 1 h ([3]; retina, read-out: concentration of SA-9 in retina): 8250 ± 10200 ng/g | fold more potent than lipoic acid in HOCl scavenging ([4]; 0.1 µM vs. 1 mM lipoic acid, 30 min): 10,000 fold | duration of HOCl scavenging effect ([4]; 0.1 µM–1000 µM in buffer): > 1 h | AUC0–2.5 h of % superoxide scavenging response ([5]; 1 mM compound, pyrogallol 1 mM, buffer): 1355 ± 42.62 | earliest time of superoxide (O2−) radical scavenging ([5]; buffer solution and TM cells): 7 min | superoxide radicals scavenged ([5]; buffer, dose response 1-1000 µM): 16–40% | AUC0-15 of % superoxide scavenging response ([5]; different concentrations 1-1000 µM, 15 minutes time point, buffer): 5972± 834.9 | EC50 (NTM-5 cells [6]): 1000 nM
